Experiments:
[1] = Bioavailability in rat (dose 2 mg/kg p.o.); format: ADME, organism-based; details: in vivo, po
Homo sapiens [2] = species on record: Homo sapiens; assay: Percent inhibition of collagen stimulated platelet aggregation at a concentration of 10 uM; format: functional
Rattus norvegicus [3] = assay: Area under curve at the dose of 2 mg/Kg administered perorally in rats; format: ADME, organism-based; details: in vivo, po
[4] = Tmax at the dose of 2 mg/Kg administered perorally in rats; format: ADME, organism-based; details: rat, in vivo, po
[5] = Cmax at the dose of 2 mg/Kg administered perorally in rats; format: ADME, organism-based; parameters: dose 2 mg/Kg, route oral; details: rat, in vivo, po
Homo sapiens [6] = species on record: Homo sapiens; assay: Concentration required to inhibit collagen induced platelet aggregation by 50%; format: functional, organism-based
[7] = Stimulation of soluble guanylate cyclase (sGC) using baculovirus expressed and partially purified bovine sGC at 1 uM concentration relative to benzydamine
[8] = target: Soluble guanylate cyclase (Homo sapiens, UniProt O75343+P33402+Q02108+Q02153); assay: The cGMP produced by compound was expressed as a ratio between the percentage of the DEA/NO response for the compound; format: protein-complex assay
[9] = Percent bioavailability at the dose of 5 mg/Kg administered perorally in rats; format: ADME, organism-based; details: rat, in vivo, po
[10] = Tmax at the dose of 5 mg/Kg administered perorally in rats; format: ADME, organism-based; details: rat, in vivo, po
Rattus norvegicus [11] = assay: Area under curve at the dose of 5 mg/Kg administered perorally in rats; format: ADME, organism-based; details: in vivo, po
[12] = Cmax at the dose of 5 mg/Kg administered perorally in rats; format: ADME, organism-based; parameters: dose 5 mg/Kg, route oral; details: rat, in vivo, po

Soluble guanylate cyclase, sequence (Q02153 whole entry): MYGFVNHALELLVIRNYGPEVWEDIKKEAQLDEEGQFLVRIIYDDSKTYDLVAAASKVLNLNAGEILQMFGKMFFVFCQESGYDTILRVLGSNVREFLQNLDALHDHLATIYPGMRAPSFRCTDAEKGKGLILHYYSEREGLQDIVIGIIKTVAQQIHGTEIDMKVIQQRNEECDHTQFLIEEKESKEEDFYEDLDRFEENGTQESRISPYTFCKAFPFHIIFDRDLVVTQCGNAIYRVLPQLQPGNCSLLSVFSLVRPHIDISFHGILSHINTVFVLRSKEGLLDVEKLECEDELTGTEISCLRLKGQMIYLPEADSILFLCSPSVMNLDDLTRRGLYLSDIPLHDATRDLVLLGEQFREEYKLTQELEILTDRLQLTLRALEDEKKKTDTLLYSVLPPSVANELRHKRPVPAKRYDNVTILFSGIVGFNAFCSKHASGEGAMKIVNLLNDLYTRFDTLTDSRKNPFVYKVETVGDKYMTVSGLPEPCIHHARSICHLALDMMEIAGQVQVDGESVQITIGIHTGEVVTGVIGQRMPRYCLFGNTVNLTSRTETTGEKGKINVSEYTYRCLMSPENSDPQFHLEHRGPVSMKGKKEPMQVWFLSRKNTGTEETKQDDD
Soluble guanylate cyclase, sequence (O75343 whole entry): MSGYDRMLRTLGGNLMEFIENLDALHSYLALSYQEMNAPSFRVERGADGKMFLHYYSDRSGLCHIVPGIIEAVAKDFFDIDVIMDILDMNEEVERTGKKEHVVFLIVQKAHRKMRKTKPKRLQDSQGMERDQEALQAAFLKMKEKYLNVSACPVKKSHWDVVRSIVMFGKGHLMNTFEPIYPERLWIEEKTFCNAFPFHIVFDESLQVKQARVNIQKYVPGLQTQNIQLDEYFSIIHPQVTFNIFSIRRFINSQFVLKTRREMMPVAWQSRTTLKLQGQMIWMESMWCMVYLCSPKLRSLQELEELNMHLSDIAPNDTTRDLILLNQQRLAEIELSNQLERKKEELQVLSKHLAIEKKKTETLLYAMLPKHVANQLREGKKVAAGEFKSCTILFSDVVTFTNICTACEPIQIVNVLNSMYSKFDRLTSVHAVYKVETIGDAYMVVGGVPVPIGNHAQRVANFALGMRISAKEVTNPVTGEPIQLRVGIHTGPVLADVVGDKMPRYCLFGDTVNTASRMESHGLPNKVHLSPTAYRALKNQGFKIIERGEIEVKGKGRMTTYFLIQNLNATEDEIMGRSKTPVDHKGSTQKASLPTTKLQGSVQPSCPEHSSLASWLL
Soluble guanylate cyclase, sequence (P33402 whole entry): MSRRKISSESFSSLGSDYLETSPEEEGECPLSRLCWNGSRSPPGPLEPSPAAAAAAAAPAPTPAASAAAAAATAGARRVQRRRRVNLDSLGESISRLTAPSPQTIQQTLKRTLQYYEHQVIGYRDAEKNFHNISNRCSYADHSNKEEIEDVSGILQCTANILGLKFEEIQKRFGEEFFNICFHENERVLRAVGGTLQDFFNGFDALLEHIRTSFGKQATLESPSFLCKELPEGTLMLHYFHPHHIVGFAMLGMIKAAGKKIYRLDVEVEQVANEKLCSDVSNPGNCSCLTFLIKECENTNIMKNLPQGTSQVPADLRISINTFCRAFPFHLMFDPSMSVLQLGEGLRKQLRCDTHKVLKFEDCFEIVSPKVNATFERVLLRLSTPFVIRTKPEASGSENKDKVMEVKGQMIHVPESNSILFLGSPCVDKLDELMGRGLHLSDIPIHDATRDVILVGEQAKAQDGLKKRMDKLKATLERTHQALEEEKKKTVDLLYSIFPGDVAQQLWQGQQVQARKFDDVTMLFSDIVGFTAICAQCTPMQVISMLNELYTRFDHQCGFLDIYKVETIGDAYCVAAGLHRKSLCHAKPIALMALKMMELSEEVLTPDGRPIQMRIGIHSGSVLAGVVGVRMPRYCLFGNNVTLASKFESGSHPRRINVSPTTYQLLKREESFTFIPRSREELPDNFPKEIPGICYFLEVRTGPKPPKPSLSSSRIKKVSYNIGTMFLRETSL
Soluble guanylate cyclase, sequence (Q02108 whole entry): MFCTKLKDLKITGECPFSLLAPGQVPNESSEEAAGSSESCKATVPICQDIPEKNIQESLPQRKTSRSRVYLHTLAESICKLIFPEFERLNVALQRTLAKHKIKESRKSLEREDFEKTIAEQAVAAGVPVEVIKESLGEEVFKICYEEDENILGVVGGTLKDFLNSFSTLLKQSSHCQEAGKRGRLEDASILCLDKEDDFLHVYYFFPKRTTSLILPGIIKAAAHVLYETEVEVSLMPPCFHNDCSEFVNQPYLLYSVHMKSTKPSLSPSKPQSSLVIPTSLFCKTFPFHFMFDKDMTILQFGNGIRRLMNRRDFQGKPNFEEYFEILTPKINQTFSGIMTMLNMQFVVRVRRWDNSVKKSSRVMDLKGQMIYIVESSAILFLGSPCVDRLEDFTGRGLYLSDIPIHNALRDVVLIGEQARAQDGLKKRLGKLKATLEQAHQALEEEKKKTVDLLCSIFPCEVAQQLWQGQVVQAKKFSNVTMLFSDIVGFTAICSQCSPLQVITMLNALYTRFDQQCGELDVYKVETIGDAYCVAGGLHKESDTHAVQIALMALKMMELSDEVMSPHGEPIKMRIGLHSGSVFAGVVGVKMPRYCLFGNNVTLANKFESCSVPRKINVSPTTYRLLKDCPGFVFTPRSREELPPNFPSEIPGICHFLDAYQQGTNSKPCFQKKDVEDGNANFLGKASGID

With `CN(C)CCCOc1cc(C(=O)Nc2ccc(Br)cc2)n(Cc2ccccc2)n1` the bioavailability [1] was 17%, the inhibition at 10 µM (Homo sapiens [2]) was 90% and the AUC (Rattus norvegicus [3]) was 76.9 ng·h/mL. It also gave a Tmax [4] of 5 h, a Cmax [5] of 12.1 ng/mL and an IC50 (Homo sapiens [6]) of 3580 nM. For the same compound, the Relative enzyme activity [7] was 0.87.
For `CN(C)CCCOc1cc(C(=O)Nc2ccc(Cl)cc2F)n(Cc2ccccc2)n1`, the inhibition at 10 µM (Homo sapiens [2]) was 96% and the Relative enzyme activity [7] was 0.91.
In the case of `CN(C)CCCOc1cc(C(=O)Nc2cccc(Cl)c2)n(Cc2ccccc2)n1`, the inhibition at 10 µM (Homo sapiens [2]) is reported as 95% and the Relative enzyme activity [7] is reported as 0.93.
`CN(C)CCCOc1nn(Cc2ccccc2)c2ccccc12` [BENZYDAMINE] showed an EC50 [8] of 1020 nM.
In the case of `CN(C)CCCOc1cc(C(=O)Nc2ccc(OC(F)(F)F)cc2)n(Cc2ccccc2)n1`, the inhibition at 10 µM (Homo sapiens [2]) is reported as 85% and the Relative enzyme activity [7] is reported as 0.93.
`CN(C)CCCOc1cc(C(=O)Nc2cccc(F)c2)n(Cc2ccccc2)n1` gave an inhibition at 10 µM (Homo sapiens [2]) of 95% and a Relative enzyme activity [7] of 0.87.
Compound `CN(C)CCCOc1cc(C(=O)Nc2nccc3ccccc23)n(Cc2ccccc2)n1` has an inhibition at 10 µM (Homo sapiens [2]) of 80% and a Relative enzyme activity [7] of 1.31.
`COc1cccc(NC(=O)c2cc(OCCCN(C)C)nn2Cc2ccccc2)c1` showed an inhibition at 10 µM (Homo sapiens [2]) of 96% and a Relative enzyme activity [7] of 0.74.
`COc1ccc(-c2ccccc2)cc1NC(=O)c1cc(OCCCN(C)C)nn1Cc1ccccc1` showed a bioavailability [1] of 22%, an inhibition at 10 µM (Homo sapiens [2]) of 95% and an AUC (Rattus norvegicus [3]) of 130 ng·h/mL. The Tmax [4] was 7.3 h, the Cmax [5] was 18 ng/mL and the IC50 (Homo sapiens [6]) was 2760 nM. The Relative enzyme activity [7] was 0.86.
With `CN(C)CCCOc1cc(C(=O)Nc2cc(F)cc(F)c2)n(Cc2ccccc2)n1` the inhibition at 10 µM (Homo sapiens [2]) was 44% and the Relative enzyme activity [7] was 0.76.
Work on `COc1cc(NC(=O)c2cc(OCCCN(C)C)nn2Cc2ccccc2)cc(OC)c1OC` yielded an inhibition at 10 µM (Homo sapiens [2]) of 66% and a Relative enzyme activity [7] of 0.96.
With `CN(C)CCCOc1cc(C(=O)Nc2cnc3ccccc3c2)n(Cc2ccccc2)n1` the bioavailability [1] was 19%, the inhibition at 10 µM (Homo sapiens [2]) was 95% and the AUC (Rattus norvegicus [3]) was 95 ng·h/mL. The Tmax [4] was 5 h, the Cmax [5] was 14.3 ng/mL and the IC50 (Homo sapiens [6]) was 3270 nM. It also gave a Relative enzyme activity [7] of 0.91.
In the case of `CN(C)CCCOc1cc(C(=O)Nc2ccc3c(c2)C(=O)N(C)C3=O)n(Cc2ccccc2)n1`, the inhibition at 10 µM (Homo sapiens [2]) is reported as 64% and the Relative enzyme activity [7] is reported as 0.81.
With `CN(C)CCCOc1cc(C(=O)Nc2ccccc2F)n(Cc2ccccc2)n1` the inhibition at 10 µM (Homo sapiens [2]) was 58% and the Relative enzyme activity [7] was 1.02.
`CN(C)CCCOc1cc(C(=O)Nc2cc(F)cc(C(F)(F)F)c2)n(Cc2ccccc2)n1` showed an inhibition at 10 µM (Homo sapiens [2]) of 43% and a Relative enzyme activity [7] of 0.9.
`CN(C)CCCOc1cc(C(=O)Nc2nccs2)n(Cc2ccccc2)n1` gave an inhibition at 10 µM (Homo sapiens [2]) of 27% and a Relative enzyme activity [7] of 1.06.
`COc1ccc(NC(=O)c2cc(OCCCN(C)C)nn2Cc2ccccc2)cc1Cl` gave a bioavailability [1] of 11%, an inhibition at 10 µM (Homo sapiens [2]) of 93% and an AUC (Rattus norvegicus [3]) of 32.6 ng·h/mL. The Tmax [4] was 4.5 h, the Cmax [5] was 5.4 ng/mL and the IC50 (Homo sapiens [6]) was 2630 nM. For the same compound, the Relative enzyme activity [7] was 0.88.
With `CN(C)CCCOc1cc(C(=O)Nc2ccc(-c3csnn3)cc2)n(Cc2ccccc2)n1` the inhibition at 10 µM (Homo sapiens [2]) was 96% and the Relative enzyme activity [7] was 0.81.
Compound `COc1ccc(NC(=O)c2cc(OCCCN(C)C)nn2Cc2ccccc2)cc1` has a bioavailability [9] of 12%, an inhibition at 10 µM (Homo sapiens [2]) of 83% and a Tmax [10] of 2.7 h. The AUC (Rattus norvegicus [11]) was 61.1 ng·h/mL, the Cmax [12] was 6.4 ng/mL and the IC50 (Homo sapiens [6]) was 2840 nM. The Relative enzyme activity [7] was 1.1.
`CN(C)CCCOc1cc(C(=O)Nc2ccn(-c3ccccc3)n2)n(Cc2ccccc2)n1` gave an inhibition at 10 µM (Homo sapiens [2]) of 75% and a Relative enzyme activity [7] of 0.71.
With `CN(C)CCCOc1cc(C(=O)Nc2ccc3ccccc3n2)n(Cc2ccccc2)n1` the inhibition at 10 µM (Homo sapiens [2]) was 57% and the Relative enzyme activity [7] was 0.97.
Compound `CN(C)CCCOc1cc(C(=O)Nc2nc3ccccc3[nH]2)n(Cc2ccccc2)n1` has an inhibition at 10 µM (Homo sapiens [2]) of 13% and a Relative enzyme activity [7] of 0.74.
In the case of `COc1cc(NC(=O)c2cc(OCCCN(C)C)nn2Cc2ccccc2)cc(OC)c1`, the inhibition at 10 µM (Homo sapiens [2]) is reported as 87% and the Relative enzyme activity [7] is reported as 0.72.
For `CN(C)CCCOc1cc(C(=O)Nc2cccc(-c3cnco3)c2)n(Cc2ccccc2)n1`, the inhibition at 10 µM (Homo sapiens [2]) was 83% and the Relative enzyme activity [7] was 0.71.
`CN(C)CCCOc1cc(C(=O)Nc2nc3c(s2)CCCC3)n(Cc2ccccc2)n1` showed an inhibition at 10 µM (Homo sapiens [2]) of 92% and a Relative enzyme activity [7] of 0.85.
`CN(C)CCCOc1cc(C(=O)Nc2ccc3[nH]ccc3c2)n(Cc2ccccc2)n1` gave an inhibition at 10 µM (Homo sapiens [2]) of 66% and a Relative enzyme activity [7] of 0.91.
